Assay results from ChEMBL document CHEMBL1201862, “PubChem BioAssay data set” (2004).
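Dose response: 5 concentrations. Exposure: 48 h. Format: 96-well plates. Endpoint: linear interpolation; highest concentration if not reached. GI50 is the concentration that inhibits growth by half.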 The source made the active and inactive calls. Cut-off read from the data, not from the text of the source: active = GI50 up to about 1.1 µM and inactive = higher.

Assays:
Assay in all cases: NCI tumour cell line growth inhibition, 48 h
[1] = tested on: ACHN
[2] = tested on: CAKI-1
[3] = tested on: CCRF-CEM
[4] = tested on: HCC 2998
[5] = tested on: HT-29
[6] = tested on: MDA-MB-231
[7] = tested on: MDA-MB-435
[8] = tested on: Malme-3M
[9] = tested on: NCI-H226
[10] = tested on: NCI-H23
[11] = tested on: NCI-H522
[12] = tested on: OVCAR-3
[13] = tested on: PC-3
[14] = tested on: SF-295
[15] = tested on: SF-539
[16] = tested on: SK-MEL-28
[17] = tested on: SK-MEL-5
[18] = tested on: SN12C
[19] = tested on: SNB-19
[20] = tested on: RPMI-8226

Structure (SMILES)	GI50 [1]	GI50 [2]	GI50 [3]	GI50 [4]	GI50 [5]	GI50 [6]	GI50 [7]	GI50 [8]	GI50 [9]	GI50 [10]	GI50 [11]	GI50 [12]	GI50 [13]	GI50 [14]	GI50 [15]	GI50 [16]	GI50 [17]	GI50 [18]	GI50 [19]	GI50 [20]
O=C(Nc1cccc2ccccc12)c1ccccc1	> 100 µM (inactive)	99.1 µM (inactive)	27.1 µM (inactive)	> 100 µM (inactive)	47.5 µM (inactive)	> 100 µM (inactive)	22.6 µM (inactive)	88.3 µM (inactive)	> 100 µM (inactive)	> 100 µM (inactive)	68.7 µM (inactive)	11.8 µM (inactive)	72.3 µM (inactive)	> 100 µM (inactive)	64.7 µM (inactive)	> 100 µM (inactive)	53.5 µM (inactive)	> 100 µM (inactive)	> 100 µM (inactive)	–
COC(=O)c1c(C)c2c(c(C)c1O)OC(=O)c1c(C)cc(O)c(C=O)c1O2	> 100 µM (inactive)	–	> 100 µM (inactive)	> 100 µM (inactive)	> 100 µM (inactive)	> 100 µM (inactive)	> 100 µM (inactive)	> 100 µM (inactive)	> 100 µM (inactive)	> 100 µM (inactive)	> 100 µM (inactive)	> 100 µM (inactive)	> 100 µM (inactive)	> 100 µM (inactive)	> 100 µM (inactive)	> 100 µM (inactive)	> 100 µM (inactive)	> 100 µM (inactive)	> 100 µM (inactive)	> 100 µM (inactive)
CCN(CC)CCn1nc(N)c2nc3cc(Cl)ccc3nc21	37.5 µM (inactive)	51.4 µM (inactive)	> 10 µM (inactive)	> 100 µM (inactive)	35.3 µM (inactive)	> 100 µM (inactive)	97.9 µM (inactive)	61.7 µM (inactive)	70.1 µM (inactive)	91.6 µM (inactive)	31.8 µM (inactive)	–	58.1 µM (inactive)	54.2 µM (inactive)	–	76.2 µM (inactive)	26.1 µM (inactive)	45.1 µM (inactive)	53.5 µM (inactive)	89.9 µM (inactive)
O=C1C=CC(=O)c2c1ccc1c3ccccc3n(Cc3ccc([N+](=O)[O-])cc3)c21	> 100 µM (inactive)	> 100 µM (inactive)	10.9 µM (inactive)	> 100 µM (inactive)	> 100 µM (inactive)	> 100 µM (inactive)	> 100 µM (inactive)	–	> 100 µM (inactive)	> 100 µM (inactive)	26.6 µM (inactive)	> 100 µM (inactive)	> 100 µM (inactive)	> 100 µM (inactive)	> 100 µM (inactive)	> 100 µM (inactive)	> 100 µM (inactive)	> 100 µM (inactive)	> 100 µM (inactive)	> 10 µM (inactive)
COc1ccc(CC2OC3(CCCCC3)CC3CCCCN32)cc1 (centres undefined)	> 100 µM (inactive)	> 100 µM (inactive)	47 µM (inactive)	> 100 µM (inactive)	57.4 µM (inactive)	10.3 µM (inactive)	50 µM (inactive)	> 100 µM (inactive)	53 µM (inactive)	> 100 µM (inactive)	> 100 µM (inactive)	46 µM (inactive)	> 100 µM (inactive)	> 100 µM (inactive)	–	> 100 µM (inactive)	49.2 µM (inactive)	> 100 µM (inactive)	> 100 µM (inactive)	23.4 µM (inactive)
Cc1ccc(C2NC(=N)NC3=C2CCOc2c3ccc3ccccc23)cc1 (centres undefined)	–	3.66 µM (inactive)	0.468 µM (active)	7.16 µM (inactive)	1.81 µM (inactive)	3.75 µM (inactive)	2.27 µM (inactive)	–	–	34.9 µM (inactive)	33.5 µM (inactive)	4.92 µM (inactive)	21.9 µM (inactive)	16 µM (inactive)	1.57 µM (inactive)	5.55 µM (inactive)	12.9 µM (inactive)	6.38 µM (inactive)	29.6 µM (inactive)	4.42 µM (inactive)
CCc1ccc2c(c1)/C(=C1/Nc3ccccc3/C1=N/O)C(=O)N2	3.84 µM (inactive)	2.24 µM (inactive)	3.21 µM (inactive)	3.3 µM (inactive)	4.71 µM (inactive)	20 µM (inactive)	7.55 µM (inactive)	3.72 µM (inactive)	12 µM (inactive)	5.18 µM (inactive)	3.43 µM (inactive)	3.4 µM (inactive)	6.85 µM (inactive)	6.25 µM (inactive)	–	12.9 µM (inactive)	3.7 µM (inactive)	5.61 µM (inactive)	14.7 µM (inactive)	5.15 µM (inactive)
Cn1nc2ccc3nccc(N4CCN(CCO)CC4)c3c2n1	> 100 µM (inactive)	–	21.3 µM (inactive)	> 100 µM (inactive)	> 100 µM (inactive)	> 100 µM (inactive)	> 100 µM (inactive)	> 100 µM (inactive)	> 100 µM (inactive)	> 100 µM (inactive)	> 100 µM (inactive)	> 100 µM (inactive)	19.3 µM (inactive)	> 100 µM (inactive)	–	> 100 µM (inactive)	> 100 µM (inactive)	> 100 µM (inactive)	> 100 µM (inactive)	–
CN(CCNC(=O)c1n[nH]c2c1Cc1ccccc1-2)CCNC(=O)c1n[nH]c2c1Cc1ccccc1-2	17.1 µM (inactive)	16.7 µM (inactive)	18.1 µM (inactive)	15.4 µM (inactive)	17.7 µM (inactive)	19 µM (inactive)	17.5 µM (inactive)	19.2 µM (inactive)	19.1 µM (inactive)	17.2 µM (inactive)	17.5 µM (inactive)	14.9 µM (inactive)	17.8 µM (inactive)	16.6 µM (inactive)	–	18.3 µM (inactive)	16.9 µM (inactive)	16.7 µM (inactive)	16.8 µM (inactive)	–
CC1=C(OC2OC(CO)C(O)C(O)C2O)C(=O)C[C@H]2C1=CC[C@@H]1[C@@]2(C)C(=O)C[C@]2(C)[C@@H]([C@@](C)(O)C(=O)CCC(C)(C)O)[C@H](O)C[C@@]12C (some centres undefined)	> 100 µM (inactive)	> 100 µM (inactive)	> 100 µM (inactive)	> 100 µM (inactive)	> 100 µM (inactive)	> 100 µM (inactive)	> 100 µM (inactive)	> 100 µM (inactive)	> 100 µM (inactive)	> 100 µM (inactive)	> 100 µM (inactive)	> 100 µM (inactive)	> 100 µM (inactive)	> 100 µM (inactive)	> 100 µM (inactive)	> 100 µM (inactive)	> 100 µM (inactive)	> 100 µM (inactive)	> 100 µM (inactive)	–
O=[N+]([O-])c1ccc2nc3ccccc3cc2c1	3.04 µM (inactive)	0.0149 µM (active)	–	1.63 µM (inactive)	2 µM (inactive)	2.55 µM (inactive)	1.46 µM (inactive)	2.9 µM (inactive)	2.45 µM (inactive)	2.28 µM (inactive)	2.81 µM (inactive)	0.342 µM (active)	1.95 µM (inactive)	–	2.1 µM (inactive)	2.57 µM (inactive)	3.1 µM (inactive)	1.96 µM (inactive)	2.99 µM (inactive)	–
CCOC(=O)c1[nH]c2nc(SC)nc(NC)c2c1N	> 100 µM (inactive)	> 100 µM (inactive)	60 µM (inactive)	87.5 µM (inactive)	47.3 µM (inactive)	> 100 µM (inactive)	> 100 µM (inactive)	> 100 µM (inactive)	42.8 µM (inactive)	> 100 µM (inactive)	51.4 µM (inactive)	> 100 µM (inactive)	> 100 µM (inactive)	> 100 µM (inactive)	–	> 100 µM (inactive)	30.3 µM (inactive)	> 100 µM (inactive)	> 100 µM (inactive)	46 µM (inactive)
C[C@@]12C[C@@H](c3ccccc3O1)N1CCSC1=N2	> 100 µM (inactive)	> 100 µM (inactive)	–	> 100 µM (inactive)	> 100 µM (inactive)	> 100 µM (inactive)	> 100 µM (inactive)	> 100 µM (inactive)	> 100 µM (inactive)	> 100 µM (inactive)	> 100 µM (inactive)	> 100 µM (inactive)	> 100 µM (inactive)	> 100 µM (inactive)	> 100 µM (inactive)	> 100 µM (inactive)	> 100 µM (inactive)	> 100 µM (inactive)	> 100 µM (inactive)	> 100 µM (inactive)
CC(C)C1=CC23CCC4C(C)(C(=O)O)CCCC4(C)C2CC1C1C(=O)N(c2cccc(N4C(=O)C5C6CC7C8(C)CCCC(C)(C(=O)O)C8CCC7(C=C6C(C)C)C5C4=O)c2)C(=O)C13 (centres undefined)	13.4 µM (inactive)	–	6.31 µM (inactive)	6.81 µM (inactive)	3.84 µM (inactive)	14.8 µM (inactive)	4.02 µM (inactive)	17 µM (inactive)	16.6 µM (inactive)	3.4 µM (inactive)	14.2 µM (inactive)	13.1 µM (inactive)	4.66 µM (inactive)	–	9.08 µM (inactive)	9.35 µM (inactive)	15.3 µM (inactive)	13.3 µM (inactive)	3.02 µM (inactive)	9.35 µM (inactive)
NC1=NC(=O)[C@H](Cc2c[nH]c3ccccc23)N1C(=O)OCc1ccccc1	> 100 µM (inactive)	> 100 µM (inactive)	–	> 100 µM (inactive)	> 100 µM (inactive)	> 100 µM (inactive)	56.9 µM (inactive)	68.7 µM (inactive)	84.5 µM (inactive)	38.1 µM (inactive)	37 µM (inactive)	59.7 µM (inactive)	46 µM (inactive)	75.3 µM (inactive)	–	< 0.01 µM (active)	40.3 µM (inactive)	91 µM (inactive)	> 100 µM (inactive)	–
